Reference: paper PMC8465649, “Semaphorin 3A—Glycosaminoglycans Interaction as Therapeutic Target for Axonal Regeneration” (Pharmaceuticals, 2021)

How the values were obtained:
[1] = Potentiometric titration (protonation state); format: physicochemical; settings: 25 °C, 0.15 M NaCl
Method: UV absorbance was measured using a SpectraMax M5 spectrophotometer (Molecular Devices, Sunnyvale, CA, USA). The experiments were performed with a 10 μM methylene blue (MB) solution in 5 mM Tris-HCl buffer at pH 7.5, to which increasing amounts of heparin were added to saturation of the MB dye. For the competition assays, solutions of MB and heparin at fixed concentrations were titrated with increasing amounts of SICHI or CSIC02–04 peptoids. Then, the relative increase in absorbance at 665 nm, due to release of MB from the MB–heparin complex when adding either SICHI or CSIC02–04 to the cuvette, can be plotted vs. the charge ratio considering their respective concentrations and that all the peptoids have three positive charges, and heparin has four negative charges per disaccharide unit. With this information, the charge excess for 50% of displacement of the MB dye (CE50) for each compound can be calculated for comparison. Potentiometric titrations were carried out in a reaction vessel thermostated with a water bath at 25.0 ± 0.1 °C under nitrogen atmosphere, and 0.15 M NaCl was used as the supporting electrolyte. The titrant was delivered by a precision microburette. The potentiometric measurements were made with a pH-mV meter. The reference electrode was an Ag/AgCl electrode in saturated KCl solution. The acquisition of the emf data was performed with the computer program Tiamo 2.3.1. […]

[2] = 1D 1H NMR titration with chondroitin sulfate; format: binding; settings: increasing amounts of CS, pH 7.5
Source text: As a simple way to characterize the GAG binding behavior, we applied the method previously described by Jiao et al., using the cationic dye known as methylene blue (MB) in a colorimetric competition assay. To compare with our previous results for SICHI, we performed similar experimental design and data analysis, using the charge excess at 50% of MB displacement (CE50) as the parameter to compare the respective binding abilities. The four peptoids rendered very similar CE50 values (CE50 = 1.5–1.8, Figure 6a), reflecting the equivalent charge states. However, CSIC02 reached saturation (complete MB displacement) with a lower number of equivalents, which can be due to its slightly larger molecular size that may cause a more efficient interference with MB binding. Next, we assessed the integrity and solubility of CSIC02 by NMR. To characterize its tendency to aggregate in aqueous solution, NMR spectra at increasing concentrations were acquired which show the same sharp signals under all conditions (Figure S13). […] Direct binding of CSIC02 to GAGs was qualitatively assessed by specific NMR experiments.
Figure S14. CSIC02 spectra with increasing amount of Chondroitin sulfate from shark
cartilage (0,5, 1,0. 1,5, 2,0. 2,5 and 3,0 mg). Spectra were acquired in 10 mM Tris-HCl/150
(1 picture or pasted object on this page, not shown here)

- protonation state at neutral pH [1]: triprotonated
Structure (SMILES): CCN(CC)CCN(CC(=O)N(CCN1CCCC1)CC(=O)N(CCC1CCCN1C)CC(N)=O)C(=O)OCc1ccccc1 (centres unmarked) [CSIC02]
- binding to chondroitin sulfate (qualitative) [2]: progressive shifting of CSIC02 resonances
